Measured values taken from the supplement of paper PMC6045584.
± gives the standard deviation of the averaged measurements.

compound: CC[C@@]1(O)C(=O)OCc2c1cc1n(c2=O)Cc2cc3ccccc3nc2-1 [CAMPTOTHECIN]; experiment: surviving fraction relative to DMSO-only wells; higher = less growth inhibition; conditions: 100 nM; exposure time: 5 days
Outline: (§1)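 Log-phase tumour cell lines were seeded at 250–500 cells per well in 384-well plates. After 24 hours they were exposed continuously for five days to inhibitors at 0.5, 1, 5, 10, 50, 100, 500 and 1000 nM. Viability was read by CellTiter-Glo luminescence after 10 minutes at room temperature, and surviving fraction is luminescence normalised to the median of DMSO-only wells. Each line was screened three times and kept only if replicate Pearson r >0.7 and median Z' >0.3.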

Row | Test System | surviving fraction
1 | SCC003 HEADNECK | 0.218 ± 0.029

same assay, conditions: 500 nM; exposure time: 5 days

Row | Test System | surviving fraction
2 | HS578T BREAST | 0.228 ± 0.0098
3 | JURKAT HAEMATOPOIETIC AND LYMPHOID TISSUE | 0.0203 ± 0.00058
4 | MDAMB453 BREAST | 0.109 ± 0.016
5 | S68 BREAST | 0.0747 ± 0.012
6 | SCC003 HEADNECK | 0.07 ± 0.0061

same assay, conditions: 1000 nM; exposure time: 5 days

Row | Test System | surviving fraction
7 | HS578T BREAST | 0.212 ± 0.039
8 | JURKAT HAEMATOPOIETIC AND LYMPHOID TISSUE | 0.0253 ± 0.0011
9 | MDAMB453 BREAST | 0.091 ± 0.0027
10 | S68 BREAST | 0.0687 ± 0.0057
11 | SCC003 HEADNECK | 0.054 ± 0.004

compound: COCC[n+]1c2c(n(Cc3cnccn3)c1C)C(=O)c1ccccc1C2=O [YM155]; experiment: as above; conditions: 0.5 nM; exposure time: 5 days
Outline: as §1

Row | Test System | surviving fraction
12 | HS578T BREAST | 1.03 ± 0.14
13 | JURKAT HAEMATOPOIETIC AND LYMPHOID TISSUE | 1.02 ± 0.062
14 | MDAMB453 BREAST | 0.989 ± 0.048
15 | S68 BREAST | 0.884 ± 0.076
16 | SCC003 HEADNECK | 1.072 ± 0.0061

same assay, conditions: 1 nM; exposure time: 5 days

Row | Test System | surviving fraction
17 | HS578T BREAST | 1.06 ± 0.19
18 | JURKAT HAEMATOPOIETIC AND LYMPHOID TISSUE | 1.033 ± 0.0072
19 | MDAMB453 BREAST | 0.949 ± 0.089
20 | S68 BREAST | 1.1 ± 0.45
21 | SCC003 HEADNECK | 1.02 ± 0.071

same assay, conditions: 5 nM; exposure time: 5 days

Row | Test System | surviving fraction
22 | HS578T BREAST | 0.993 ± 0.19
23 | JURKAT HAEMATOPOIETIC AND LYMPHOID TISSUE | 0.782 ± 0.015
24 | MDAMB453 BREAST | 0.306 ± 0.021
25 | S68 BREAST | 0.674 ± 0.092
26 | SCC003 HEADNECK | 0.82 ± 0.12

same assay, conditions: 10 nM; exposure time: 5 days

Row | Test System | surviving fraction
27 | HS578T BREAST | 1.06 ± 0.082
28 | JURKAT HAEMATOPOIETIC AND LYMPHOID TISSUE | 0.445 ± 0.014
29 | MDAMB453 BREAST | 0.2993 ± 0.0025
30 | S68 BREAST | 0.586 ± 0.038
31 | SCC003 HEADNECK | 0.502 ± 0.14

same assay, conditions: 50 nM; exposure time: 5 days

Row | Test System | surviving fraction
32 | HS578T BREAST | 0.739 ± 0.18
33 | JURKAT HAEMATOPOIETIC AND LYMPHOID TISSUE | 0.0363 ± 0.00058
34 | MDAMB453 BREAST | 0.11 ± 0.0085
35 | S68 BREAST | 0.143 ± 0.016
36 | SCC003 HEADNECK | 0.086 ± 0.0066

same assay, conditions: 100 nM; exposure time: 5 days

Row | Test System | surviving fraction
37 | HS578T BREAST | 0.809 ± 0.066
38 | JURKAT HAEMATOPOIETIC AND LYMPHOID TISSUE | 0.029
39 | MDAMB453 BREAST | 0.0773 ± 0.014
40 | S68 BREAST | 0.0627 ± 0.0061
41 | SCC003 HEADNECK | 0.052 ± 0.0046

same assay, conditions: 500 nM; exposure time: 5 days

Row | Test System | surviving fraction
42 | HS578T BREAST | 0.274 ± 0.067
43 | JURKAT HAEMATOPOIETIC AND LYMPHOID TISSUE | 0.027
44 | MDAMB453 BREAST | 0.0533 ± 0.0076
45 | S68 BREAST | 0.0267 ± 0.00058
46 | SCC003 HEADNECK | 0.024

same assay, conditions: 1000 nM; exposure time: 5 days

Row | Test System | surviving fraction
47 | HS578T BREAST | 0.154 ± 0.027
48 | JURKAT HAEMATOPOIETIC AND LYMPHOID TISSUE | 0.0317 ± 0.00058
49 | MDAMB453 BREAST | 0.057 ± 0.017
50 | S68 BREAST | 0.0277 ± 0.0015
